These results are taken from patent US11406622B2, “Glaucocalyxin a derivative, pharmaceutically acceptable salt thereof, or pharmaceutical composition thereof and uses thereof in preparation of drugs for treating psoriasis” (SUZHOU PHARMAVAN CO., LTD., priority 2017, dated 2022).

Broadly, the IC50 is the point on the concentration scale where inhibition reaches its midpoint.

Structures can show the parent of a compound that is named as a salt.

The first series deals with human keratinocytes (HaCaT). The experiment in a line: Effect on proliferation of human keratinocytes, CCK-8, 48 h (Example 5). The format is cell-based. As to conditions: 48 hours of treatment. As to the method:
In this example, the glaucocalyxin A derivatives of the present application, or pharmaceutically acceptable salts thereof, were examined for the effect on the proliferation of human keratinocytes. In this example, the glaucocalyxin A derivatives as shown in Table 1 were examined by using the following procedure. A cell suspension was prepared and inoculated into three 96-well plates at 8000 cells in a volume of 150 μl per well, which were then cultured overnight in an incubator at 37° C., 5% CO2. On the next day, 50 μl of test compound solution at different concentrations was added to each well. Triplicate wells were set up for each concentration. A vehicle control group (without compound), a cell control group (without compound and vehicle), and a blank medium control group (without cells, a well for null adjustment) were also set up, and cultured for an additional 48 hours. CCK-8 staining working solution was added at 110 μL per well, and cultured for additional 1-4 h. At the end of the culture, the absorbances were measured at 450 nm (OD450 nm) on a Bio-Tek enzyme-linked immunosorbent assay. The results were expressed as the mean OD450 nm value of triplicates±standard deviation (x±sd). The Origin 7.0 was used for plotting and analysis. A fitting curve was obtained by plotting the OD value of each group against the logarithmic concentration of the test compound, and then the IC50 value was determined.
In turn, `C=C1C(=O)C23C(O)CC4C(C)(C)c5nc(N)sc5CC4(C)C2CCC1C3O` (stereo not shown) [Compound 01] returned an IC50 of 3.21 µM. The molecule `C=C1C(=O)C23C(O)CC4C(C)(C)c5nc(N)sc5CC4(C)C2CCC1C3O` (stereo not shown) [Compound 02] returned a concentration for half-maximal inhibition (IC50) of 3.52 µM.

`C=C1C(=O)C23C(O)CC4C(C)(C)c5nc(N)sc5CC4(C)C2CCC1C3O` (stereo not shown) [Compound 03] returned a half-inhibitory concentration (IC50) of 4.02 µM. The molecule `C=C1C(=O)C23C(O)CC4C(C)(C)c5nc(N)sc5CC4(C)C2CCC1C3O` (stereo not shown) [Compound 04] registered a half-inhibitory concentration (IC50) of 4.1 µM. As for `C=C1C(=O)C23C(O)CC4C(C)(C)c5nc(N)sc5CC4(C)C2CCC1C3O` (stereo not shown) [Compound 05], the concentration for half-maximal inhibition (IC50) is 3.45 µM. In turn, `C=C1C(=O)C23C(O)CC4C(C)(C)c5nc(N)sc5CC4(C)C2CCC1C3O` (stereo not shown) [Compound 06] came in with an IC50 of 2.91 µM. Molecule `C=C1C(=O)C23C(O)CC4C(C)(C)c5nc(N)sc5CC4(C)C2CCC1C3O` (stereo not shown) [Compound 07] yielded an IC50 of 3.28 µM. In turn, `C=C1C(=O)C23C(O)CC4C(C)(C)c5nc(N)sc5CC4(C)C2CCC1C3O` (stereo not shown) [Compound 08] returned a 50% inhibitory concentration (IC50) of 2.85 µM. Same read-out and setting: as for `C=C1C(=O)C23C(O)CC4C(C)(C)c5nc(N)sc5CC4(C)C2CCC1C3O` (stereo not shown) [Compound 09], the figure is 2.42 µM. Regarding `C=C1C(=O)C23C(O)CC4C(C)(C)c5nc(N)sc5CC4(C)C2CCC1C3O` (stereo not shown) [Compound 10], the IC50 is 3.86 µM. Same read-out and setting: as for `C=C1C(=O)C23C(O)CC4C(C)(C)c5nc(N)sc5CC4(C)C2CCC1C3O` (stereo not shown) [Compound 11], the figure is 3 µM; as for `C=C1C(=O)C23C(O)CC4C(C)(C)c5nc(NN)sc5CC4(C)C2CCC1C3O` (stereo not shown) [Compound 12], 1.21 µM; as for `C=C1C(=O)C23C(O)CC4C(C)(C)c5nc(Nc6ccncc6)sc5CC4(C)C2CCC1C3O` (stereo not shown) [Compound 13], 3.62 µM.

The molecule `C=C1C(=O)C23C(O)CC4C(C)(C)c5nc(NCCC)sc5CC4(C)C2CCC1C3O` (stereo not shown) [Compound 14] yielded a half-maximal inhibitory concentration (IC50) of 7 µM. On the same count and under the same terms, as for `C=C1C(=O)C23C(O)CC4C(C)(C)c5nc(NC(C)C)sc5CC4(C)C2CCC1C3O` (stereo not shown) [Compound 15], the figure is 6.95 µM; as for `C=C1C(=O)C23C(O)CC4C(C)(C)c5nc(NCCCC)sc5CC4(C)C2CCC1C3O` (stereo not shown) [Compound 16], 8.88 µM.

On to `C=C1C(=O)C23C(O)CC4C(C)(C)c5nc(NCCCCCC)sc5CC4(C)C2CCC1C3O` (stereo not shown) [Compound 17], for which the IC50 came to 4.29 µM. Still for that read-out and setting: as for `C=CCNc1nc2c(s1)CC1(C)C(CC(O)C34C(=O)C(=C)C(CCC13)C4O)C2(C)C` (stereo not shown) [Compound 18], the figure is 7.24 µM. Same read-out and setting: as for `C=C1C(=O)C23C(O)CC4C(C)(C)c5nc(NC6CCCCC6)sc5CC4(C)C2CCC1C3O` (stereo not shown) [Compound 19], the figure is 8.16 µM; as for `C=C1C(=O)C23C(O)CC4C(C)(C)c5nc(Nc6ccccc6)sc5CC4(C)C2CCC1C3O` (stereo not shown) [Compound 20], 9.31 µM; as for `C=C1C(=O)C23C(O)CC4C(C)(C)c5nc(NCc6ccccc6)sc5CC4(C)C2CCC1C3O` (stereo not shown) [Compound 21], 9.2 µM.

Molecule `C=C1C(=O)C23C(O)CC4C(C)(C)c5nc(N(C)C)sc5CC4(C)C2CCC1C3O` (stereo not shown) [Compound 22] registered an IC50 of 0.95 µM. Same read-out and setting: as for `Br.C=C1C(=O)C23C(O)CC4C(C)(C)c5nc(NC)sc5CC4(C)C2CCC1C3O` (stereo not shown) [Compound 24], the figure is 3.17 µM.

The molecule `C=C1C(=O)C23C(O)CC4C(C)(C)c5nc(NCC)sc5CC4(C)C2CCC1C3O` (stereo not shown) [Compound 25] yielded an IC50 of 5.49 µM. `C=C1C(=O)C23C(O)CC4C(C)(C)c5nc(NCCC)sc5CC4(C)C2CCC1C3O` (stereo not shown) [Compound 26] yielded an IC50 of 7.86 µM. `C=C1C(=O)C23C(O)CC4C(C)(C)c5nc(NC(C)C)sc5CC4(C)C2CCC1C3O` (stereo not shown) [Compound 27] registered an IC50 of 6.92 µM. Same read-out and setting: as for `C=C1C(=O)C23C(O)CC4C(C)(C)c5nc(N(CC)CC)sc5CC4(C)C2CCC1C3O` (stereo not shown) [Compound 28], the figure is 1.26 µM; as for `C=C1C(=O)C23C(O)CC4C(C)(C)c5nc(N(CCC)CCC)sc5CC4(C)C2CCC1C3O` (stereo not shown) [Compound 29], 1.85 µM.

`C=C1C(=O)C23C(O)CC4C(C)(C)c5nc(N(C(C)C)C(C)C)sc5CC4(C)C2CCC1C3O` (stereo not shown) [Compound 30] yielded an IC50 of 2.37 µM.

Still in this series, the particulars now being: Homo sapiens, 48 hours of treatment.
`C=C1C(=O)[C@@]23[C@H](O)C[C@@H]4C(C)(C)C(=O)CC[C@@]4(C)[C@@H]2CC[C@@H]1[C@H]3O` [Compound 31, glaucocalyxin A] gave a 50% inhibitory concentration (IC50) of 30.5 µM.

`CN(C)C[C@@H]1C(=O)C23C(O)C1CCC2[C@]1(C)CCC(=O)C(C)(C)[C@H]1C[C@H]3O` (stereo partly shown) [Compound 32, dimethylamino glaucocalyxin A hydrochloride, reference compound] came in with an IC50 of 18.7 µM.

The next series has as its system BALB/c mice. Kind of series: Acute toxicity in BALB/c mice, single tail-vein injection (Example 9). The format is in vivo, mouse. The following applies: single intravenous injection, 10 mg/kg. The text has this: In this example, Compound 23 and Compound 24 were detected for their acute toxicities, and the detection method was as follows.
Experimental procedure: 40 BALB/c mice, half male and half female, were randomly divided into groups after weight measurement. The weight of an individual should be within the range of the average body weight±20%. Animals should be allowed to acclimatize to the environment for at least 5 days before the test, and healthy (if female, it must be un-pregnant) mice were selected as test animals. The main inspections during the acclimatization period included: whether it met the quality indicators required at the time of ordering; general state check; and whether the weight reached the weight range required by the test. Unqualified abnormal animals were not included in this test. A single tail-vein injection was administrated to the mice at a low, medium, or high dose, which was 5 mg/kg, 10 mg/kg, or 40 mg/kg respectively according to a blank preparation pre-test. An equal volume of vehicle was intravenously injected to establish a control group.
Mice were observed once respectively at 0 to 2 hours and 4 to 6 hours after each administration. If toxic symptoms occurred, the number of observations could be increased. (2) Gross anatomy observation: All the surviving mice in each group were dissected and observed on the 8th day of the experiment. The abnormal organs and tissues found in the observation of administration sites and in the gross anatomy observation that might be related to the test samples were photographed and recorded. (3) Disposal of dying animals: The state of the mouse and the observation time were recorded, and the body weight was measured. (4) Disposal of dead animals: The time of death or the time when the death was found was recorded, the body weight was measured, and then the dissection was quickly performed for gross observation to speculate the cause of death.
On to `Br.C=C1C(=O)C23C(O)CC4C(C)(C)c5nc(NC)sc5CC4(C)C2CCC1C3O` (stereo not shown) [Compound 24], for which the animals that died result is “All animals”.

In the next series the test system is mouse spleen lymphocytes. The experiment in a line: ConA-induced proliferation of mouse spleen lymphocytes, MTT (Example 8). The format is cell-based. The following applies: Table 4, 0.001 μg/mL, 48 h, 5 μg/mL ConA. As to the method:
In this example, the glaucocalyxin A derivatives and pharmaceutically acceptable salts thereof were detected for the effect thereof on ConA-induced proliferation of mouse spleen lymphocytes.
2×10^7/mL cell suspension was prepared and a 5 μg/μL ConA stock solution was added thereto at a final concentration of 5 μg/mL. The resulting mixture was inoculated into a 96-well culture plate at 0.1 mL per well. Then 0.1 mL of test compound at different concentrations was added to each well. Triplicate or quadruplicate wells were set up for each group, and a vehicle control group (without compound), a stimulant control group (with ConA, without compound, and without vehicle), a cell control group (without ConA, without compound, and without vehicle), and a blank medium control group (without cells, a well for null adjustment) were also set up, and cultured at 37° C., 5% CO2 for 48 h. MTT solution at 5 mg/mL was added at 20 μl per well, and cultured for an additional 4 hours. The culture plate was taken out and centrifuged at 1000 rpm for 10 min. The supernatant of each well was aspirated, and 100 μL of SDS cell lysis solution was added to each well, and cultured overnight. On the next day, the absorbance at 550 nm (OD550nm) was measured on an enzyme-linked immunoassay analyzer. The results were expressed as the mean OD550nm value of the triplicates or quadruplicates±standard deviation (x±sd). SPSS software version 17.0 was used for statistical analysis of the mean values, that is, the vehicle group was compared with the stimulant group, and the test group of each compound concentration was compared with the corresponding vehicle control group. The cell survival rate of each group was calculated according to the mean value for the compound treatment group and the mean value for the vehicle control group, that is, the cell survival rate (%)=the mean value for the compound treatment group/the mean value for the vehicle control group×100%. A linear regression equation was obtained by plotting the cell survival rate of each group against the concentration of the test compound, statistical test of the correlation coefficient was conducted, and then the IC50 value was determined.
For `CC(C)[C@]12O[C@H]1[C@@H]1O[C@]13[C@]1(O[C@H]1C[C@H]1C4=C(CC[C@@]13C)C(=O)OC4)[C@@H]2O` [triptolide, reference compound], the “OD550nm value (x ± sd)” value turned out to be 1.03 and the “Survival rate (%)” value turned out to be 98%.

The series is the same for the next values; noted with them: Table 4, 0.1 μg/mL, 48 h, 5 μg/mL ConA.
On to `CC(C)[C@]12O[C@H]1[C@@H]1O[C@]13[C@]1(O[C@H]1C[C@H]1C4=C(CC[C@@]13C)C(=O)OC4)[C@@H]2O` [triptolide, reference compound], for which the “OD550nm value (x ± sd)” value worked out at 0.42 and the “Survival rate (%)” value worked out at 40%.

Staying with this series, now noted: range of concentrations tested, 48 h, 5 μg/mL ConA.
For the molecule `CC(C)[C@]12O[C@H]1[C@@H]1O[C@]13[C@]1(O[C@H]1C[C@H]1C4=C(CC[C@@]13C)C(=O)OC4)[C@@H]2O` [triptolide, reference compound], the “effect on ConA-induced proliferation of mouse spleen lymphocytes (in words)” value is “varying degrees of inhibition”.
